From US9670157B2, “Benzylamine derivatives” (KALVISTA PHARMACEUTICALS LIMITED, priority 2013, dated 2017)

Tests used:
Human plasma kallikrein = Human plasma kallikrein (Homo sapiens (Human), UniProt P03952); test: Determination of the IC50 for Plasma Kallikrein; format: biochemical; conditions: 37° C., fluorogenic substrate H-DPro-Phe-Arg-AFC; read-out: IC50 (human PKal)
Protocol: Human plasma kallikrein (Protogen) was incubated at 37° C. with the fluorogenic substrate H-DPro-Phe-Arg-AFC and various concentrations of the test compound. Residual enzyme activity (initial rate of reaction) was determined by measuring the change in optical absorbance at 410 nm and the IC50 value for the test compound was determined.

Human KLK1 = Human KLK1 (Homo sapiens (Human), UniProt P06870); test: Determination of the IC50 for KLK1; format: biochemical; conditions: 37° C., fluorogenic substrate H-DVal-Leu-Arg-AFC
How it was run: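 KLK1 inhibition was measured in vitro following standard published methods. Human KLK1 (Callbiochem) was incubated at 37° C. with the fluorogenic substrate H-DVal-Leu-Arg-AFC in the presence of a range of test compound concentrations. Residual enzyme activity, taken as the initial reaction rate, was followed by the change in optical absorbance at 410 nm, and IC50 values were derived.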

Human plasma kallikrein, sequence (P03952 391-638): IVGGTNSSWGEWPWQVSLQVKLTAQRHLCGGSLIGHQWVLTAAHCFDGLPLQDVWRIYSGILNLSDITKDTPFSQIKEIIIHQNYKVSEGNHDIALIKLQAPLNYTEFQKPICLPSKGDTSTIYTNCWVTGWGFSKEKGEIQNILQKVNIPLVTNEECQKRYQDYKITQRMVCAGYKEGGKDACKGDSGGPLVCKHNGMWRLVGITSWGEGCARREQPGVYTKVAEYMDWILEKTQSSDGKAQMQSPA
Human plasma kallikrein, sequence (P03952 20-390 partner): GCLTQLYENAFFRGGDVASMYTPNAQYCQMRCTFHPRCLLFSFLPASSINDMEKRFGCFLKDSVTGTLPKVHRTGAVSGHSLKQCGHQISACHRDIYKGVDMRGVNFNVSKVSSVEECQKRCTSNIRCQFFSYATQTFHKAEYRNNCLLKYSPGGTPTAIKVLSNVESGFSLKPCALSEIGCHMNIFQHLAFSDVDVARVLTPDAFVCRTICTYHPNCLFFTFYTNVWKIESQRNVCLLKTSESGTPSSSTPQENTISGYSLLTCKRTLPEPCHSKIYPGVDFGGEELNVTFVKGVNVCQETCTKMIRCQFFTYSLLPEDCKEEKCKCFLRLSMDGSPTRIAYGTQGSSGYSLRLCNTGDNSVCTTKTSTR
Human KLK1, sequence (P06870 25-262): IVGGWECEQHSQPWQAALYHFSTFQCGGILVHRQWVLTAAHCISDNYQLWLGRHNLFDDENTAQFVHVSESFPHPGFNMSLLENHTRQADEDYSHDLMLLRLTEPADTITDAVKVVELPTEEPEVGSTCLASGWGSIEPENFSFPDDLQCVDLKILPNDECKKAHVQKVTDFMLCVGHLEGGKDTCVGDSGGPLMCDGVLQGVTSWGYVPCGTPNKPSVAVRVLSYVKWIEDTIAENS

Compound	IC50 (Human plasma kallikrein) [nM]	IC50 (Human KLK1) [nM]
Cc1cc(CN)ccc1CNC(=O)c1cc(C)n(Cc2ccc(Cn3ccccc3=O)cc2)c1C [Example 91, 2,5-Dimethyl-1-[4-(2-oxo-2H-pyridin-1-ylmethyl)-benzyl]-1H-pyrrole-3-carboxylic acid 4-aminomethyl-2-methyl-benzylamide]	29	> 10000
CCn1c(C(=O)NCc2ccc(CN)cc2C)cc(C)c1Cc1ccc(Cn2ccccc2=O)cc1 [Example 92, 1-Ethyl-4-methyl-5-[4-(2-oxo-2H-pyridin-1-ylmethyl)-benzyl]-1H-pyrrole-2-carboxylic acid 4-aminomethyl-2-methyl-benzylamide]	40	10000
CCn1c(C(=O)NCc2ccc(C3(N)CC3)cc2)cc(C)c1Cc1ccc(Cn2ccccc2=O)cc1 [Example 93, 1-Ethyl-4-methyl-5-[4-(2-oxo-2H-pyridin-1-ylmethyl)-benzyl]-1H-pyrrole-2-carboxylic acid 4-(1-amino-cyclopropyl)-benzylamide]	2840	> 10000
Cc1cc(CN)cc(C)c1CNC(=O)c1cc(C)n(Cc2ccc(Cn3ccccc3=O)cc2)c1C [Example 94, 2,5-Dimethyl-1-[4-(2-oxo-2H-pyridin-1-ylmethyl)-benzyl]-1H-pyrrole-3-carboxylic acid 4-aminomethyl-2,6-dimethyl-benzylamide]	11	10900
CCn1c(C(=O)NCc2c(C)cc(CN)cc2C)cc(C)c1Cc1ccc(Cn2ccccc2=O)cc1 [Example 95, 1-Ethyl-4-methyl-5-[4-(2-oxo-2H-pyridin-1-ylmethyl)-benzyl]-1H-pyrrole-2-carboxylic acid 4-aminomethyl-2,6-dimethyl-benzylamide]	16	3900
Cc1cnn(Cc2ccc(Cn3c(C)cc(C(=O)NCc4ccc(CN)cc4)c3C)cc2)c1 [Example 96, 2,5-Dimethyl-1-[4-(4-methyl-pyrazol-1-ylmethyl)-benzyl]-1H-pyrrole-3-carboxylic acid 4-aminomethyl-benzylamide]	63	> 10000
Cc1cnn(Cc2ccc(Cn3c(C)cc(C(=O)NCc4ccc(CN)cc4C)c3C)cc2)c1 [Example 97, 2,5-Dimethyl-1-[4-(4-methyl-pyrazol-1-ylmethyl)-benzyl]-1H-pyrrole-3-carboxylic acid 4-aminomethyl-2-methyl-benzylamide]	28	> 10000
Cc1cnn(Cc2ccc(Cn3c(C)cc(C(=O)NCc4ccc(C5(N)CC5)cc4)c3C)cc2)c1 [Example 98, 2,5-Dimethyl-1-[4-(4-methyl-pyrazol-1-ylmethyl)-benzyl]-1H-pyrrole-3-carboxylic acid 4-(1-amino-cyclopropyl)-benzylamide]	701	> 10000
CCn1c(C(=O)NCc2ccc(CN)cc2C)cc(C)c1Cc1ccc(Cn2cc(C)cn2)cc1 [Example 99, 1-Ethyl-4-methyl-5-[4-(4-methyl-pyrazol-1-ylmethyl)-benzyl]-1H-pyrrole-2-carboxylic acid 4-aminomethyl-2-methyl-benzylamide]	38	> 10000
CCn1c(C(=O)NCc2ccc(C3(N)CC3)cc2)cc(C)c1Cc1ccc(Cn2cc(C)cn2)cc1 [Example 100, 1-Ethyl-4-methyl-5-[4-(4-methyl-pyrazol-1-ylmethyl)-benzyl]-1H-pyrrole-2-carboxylic acid 4-(1-amino-cyclopropyl)-benzylamide]	2320	> 10000
CCn1c(C(=O)NCc2c(C)cc(CN)cc2C)cc(C)c1Cc1ccc(Cn2cc(C)cn2)cc1 [Example 102, 1-Ethyl-4-methyl-5-[4-(4-methyl-pyrazol-1-ylmethyl)-benzyl]-1H-pyrrole-2-carboxylic acid 4-aminomethyl-2,6-dimethyl-benzylamide]	11	4270
Cc1cnn(Cc2ccc(Cn3cc(C(=O)NCc4ccc(C5(N)CC5)cc4)cn3)cc2)c1 [Example 103, 1-[4-(4-Methyl-pyrazol-1-ylmethyl)-benzyl]-1H-pyrazole-4-carboxylic acid 4-(1-amino-cyclopropyl)-benzylamide]	694	> 10000
Cc1cnn(Cc2ccc(Cn3cnc(C(=O)NCc4ccc(CN)cc4)c3)cc2)c1 [Example 104, 1-[4-(4-Methyl-pyrazol-1-ylmethyl)-benzyl]-1H-imidazole-4-carboxylic acid 4-aminomethyl-benzylamide]	30	> 10000
Cc1cnn(Cc2ccc(Cn3cnc(C(=O)NCc4ccc(C5(N)CC5)cc4)c3)cc2)c1 [Example 105, 1-[4-(4-Methyl-pyrazol-1-ylmethyl)-benzyl]-1H-imidazole-4-carboxylic acid 4-(1-amino-cyclopropyl)-benzylamide]	941	> 10000
Cc1cnn(Cc2ccc(Cn3cc(C(=O)NCc4ccc(CN)cc4C)cn3)cc2)c1 [Example 106, 1-[4-(4-Methyl-pyrazol-1-ylmethyl)-benzyl]-1H-pyrazole-4-carboxylic acid 4-aminomethyl-2-methyl-benzylamide]	2	> 10000
Cc1cnn(Cc2ccc(Cn3cnc(C(=O)NCc4ccc(CN)cc4C)c3)cc2)c1 [Example 107, 1-[4-(4-Methyl-pyrazol-1-ylmethyl)-benzyl]-1H-imidazole-4-carboxylic acid 4-aminomethyl-2-methyl-benzylamide]	3	> 10000
Cc1cnn(Cc2ccc(Cn3cc(C(=O)NCc4ccc(CN)cc4)nn3)cc2)c1 [Example 108, 1-[4-(4-Methyl-pyrazol-1-ylmethyl)-benzyl]-1H-[1,2,3]triazole-4-carboxylic acid 4-aminomethyl-benzylamide]	33	> 10000
Cc1cnn(Cc2ccc(Cn3cc(C(=O)NCc4ccc(CN)cc4C)nn3)cc2)c1 [Example 109, 1-[4-(4-Methyl-pyrazol-1-ylmethyl)-benzyl]-1H-[1,2,3]triazole-4-carboxylic acid 4-aminomethyl-2-methyl-benzylamide]	5	> 10000
Cc1cnn(Cc2ccc(Cn3cc(C(=O)NCc4ccc(C5(N)CC5)cc4)nn3)cc2)c1 [Example 110, 1-[4-(4-Methyl-pyrazol-1-ylmethyl)-benzyl]-1H-[1,2,3]triazole-4-carboxylic acid 4-(1-amino-cyclopropyl)-benzylamide]	2580	> 10000
Cc1cnn(Cc2ccc(Cn3cc(C(=O)NCc4c(C)cc(CN)cc4C)cn3)cc2)c1 [Example 111, 1-[4-(4-Methyl-pyrazol-1-ylmethyl)-benzyl]-1H-pyrazole-4-carboxylic acid 4-aminomethyl-2,6-dimethyl-benzylamide]	1	> 10000
Cc1cnn(Cc2ccc(Cn3cnc(C(=O)NCc4c(C)cc(CN)cc4C)c3)cc2)c1 [Example 112, 1-[4-(4-Methyl-pyrazol-1-ylmethyl)-benzyl]-1H-imidazole-4-carboxylic acid 4-aminomethyl-2,6-dimethyl-benzylamide]	2	> 10000
Cc1cnn(Cc2ccc(Cn3cc(C(=O)NCc4c(C)cc(CN)cc4C)nn3)cc2)c1 [Example 113, 1-[4-(4-Methyl-pyrazol-1-ylmethyl)-benzyl]-1H-[1,2,3]triazole-4-carboxylic acid 4-aminomethyl-2,6-dimethyl-benzylamide]	2	> 10000
Cc1cnn(Cc2ccc(Cn3cc(C(=O)NCc4c(C)cc(CN)cc4C)c(C)n3)cc2)c1 [Example 114, 3-Methyl-1-[4-(4-methyl-pyrazol-1-ylmethyl)-benzyl]-1H-pyrazole-4-carboxylic acid 4-aminomethyl-2,6-dimethyl-benzylamide]	0.6	> 10000
Cc1cnn(Cc2ccc(Cn3ncc(C(=O)NCc4c(C)cc(CN)cc4C)c3C)cc2)c1 [Example 115, 5-Methyl-1-[4-(4-methyl-pyrazol-1-ylmethyl)-benzyl]-1H-pyrazole-4-carboxylic acid 4-aminomethyl-2,6-dimethyl-benzylamide]	8	> 10000
Cc1cnn(Cc2ccc(Cn3nc(C)c(C(=O)NCc4c(C)cc(CN)cc4C)c3C)cc2)c1 [Example 116, 3,5-Dimethyl-1-[4-(4-methyl-pyrazol-1-ylmethyl)-benzyl]-1H-pyrazole-4-carboxylic acid 4-aminomethyl-2,6-dimethyl-benzylamide]	11700	> 10000
Cc1cnn(Cc2ccc(Cn3cc(C(=O)NCc4ccc(CN)c(F)c4)c(C(F)(F)F)n3)cc2)c1 [Example 117, 1-[4-(4-Methyl-pyrazol-1-ylmethyl)-benzyl]-3-trifluoromethyl-1H-pyrazole-4-carboxylic acid 4-aminomethyl-3-fluoro-benzylamide]	51	> 10000
Cc1cnn(Cc2ccc(Cn3cc(C(=O)NCc4c(C)cc(CN)cc4C)c(C(F)(F)F)n3)cc2)c1 [Example 118, 1-[4-(4-Methyl-pyrazol-1-ylmethyl)-benzyl]-3-trifluoromethyl-1H-pyrazole-4-carboxylic acid 4-aminomethyl-2,6-dimethyl-benzylamide]	1	> 10000
CCn1c(C(=O)NCc2ccc(CN)cc2)cc(C)c1Cc1ccc(Cn2cc(C)cn2)cc1 [Example 121, 1-Ethyl-4-methyl-5-[4-(4-methyl-pyrazol-1-ylmethyl)-benzyl]-1H-pyrrole-2-carboxylic acid 4-aminomethyl-benzylamide]	155	> 10000
CCn1c(C(=O)NCc2ccc(CN)cc2)cc(C)c1Cc1ccc(Cn2ccccc2=O)cc1 [Example 122, 1-Ethyl-4-methyl-5-[4-(2-oxo-2H-pyridin-1-ylmethyl)-benzyl]-1H-pyrrole-2-carboxylic acid 4-aminomethyl-benzylamide]	151	> 10000
